The source of these data is patent US11046686B2, “Thiadiazole IRAK4 compounds” (Gilead Sciences, Inc., priority 2018, dated 2021).

Where two headings read alike, the source gives them in different places.

One test concerns the target IRAK4 enzyme (Homo sapiens (Human), UniProt Q9NWZ3). Description: IRAK4 Biochemical Assay (TR-FRET, STK1 KinEASE). The essentials: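 TR-FRET endpoint (KinEASE STK1): phosphopeptide detected with cryptate antibody and tracer after EDTA quench, ratio 665/615 nm, normalized to no-inhibitor wells as % inhibition. Reaction: 0.75 nM IRAK4, […] peptide, 500 μM ATP, pH 7.0 HEPES, 120 min room temperature, after 15 min compound preincubation with enzyme.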
On the technique in general: Time-resolved FRET reads energy transfer from a long-lived donor to a nearby acceptor.

In another test the test system is TNFα. Description: IRAK4 Monocyte TNFα Cell Based Assay. Set-up: species or system human. To be noted: read-out: EC50 MONO TNF HTRF. The essentials: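 TNFα release quantified by HTRF (cryptate/XL665 antibody pair, overnight at RT) after 1 h compound pre-incubation (0.1% DMSO) and 4 h LPS challenge at 50 pg/ml, 37 °C, 5,000 monocytes per well. Signal ratio normalised between unstimulated (0%) and stimulated (100%) controls.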

The mark [1] stands for this setting: Homo sapiens, Monocyte, human monocytes, second part of Table 2, compounds 33-343, unit inferred.
Where [2] appears, read: second part of Table 2, compounds 33-343, unit inferred, read-out: IC50 IRAK4-HTBS.
[3] abbreviates: human monocytes, second part of Table 2, compounds 33-343, unit inferred.

Chain of IRAK4 enzyme (Q9NWZ3 whole entry): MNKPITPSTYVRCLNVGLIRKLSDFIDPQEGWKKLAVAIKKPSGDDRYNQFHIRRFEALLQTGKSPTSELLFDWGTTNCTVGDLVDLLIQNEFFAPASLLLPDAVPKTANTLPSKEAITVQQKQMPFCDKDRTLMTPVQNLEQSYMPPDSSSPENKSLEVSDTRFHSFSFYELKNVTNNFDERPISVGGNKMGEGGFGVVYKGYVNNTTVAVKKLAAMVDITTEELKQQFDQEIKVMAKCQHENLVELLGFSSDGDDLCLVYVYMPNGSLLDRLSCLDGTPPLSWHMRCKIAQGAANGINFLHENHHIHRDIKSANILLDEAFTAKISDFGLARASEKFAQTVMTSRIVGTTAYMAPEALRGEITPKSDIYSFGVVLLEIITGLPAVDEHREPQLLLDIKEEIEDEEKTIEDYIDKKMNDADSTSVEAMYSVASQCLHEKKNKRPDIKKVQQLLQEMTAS

On to `CC(=O)N[C@H]1CCN(c2nnc(-c3cnc(-c4ccc5cc(C#N)cnn45)cc3NC(C)C)s2)C[C@H]1O` [Example 62, N-((3R,4S)-1-(5-(6-(3-cyanopyrrolo[1,2-b]pyridazin-7-yl)-4-(isopropylamino)pyridin-3-yl)-1,3,4-thiadiazol-2-yl)-3-hydroxypiperidin-4-yl)acetamide], for which 0.38 nM corresponded to half-maximal inhibition against IRAK4 enzyme (IC50). Also, the EC50 – broadly, the concentration giving half of the maximal effect – with TNFα (setting [1]) turned out to be 12.5 nM.

For the compound `CC(=O)N[C@@H]1CCN(c2nnc(-c3cnc(-c4ccc5cc(C#N)cnn45)cc3NC(C)C)s2)C[C@H]1O` [Example 65, N-((3R,4R)-1-(5-(6-(3-cyanopyrrolo[1,2-b]pyridazin-7-yl)-4-(isopropylamino)pyridin-3-yl)-1,3,4-thiadiazol-2-yl)-3-hydroxypiperidin-4-yl)acetamide], the 50% inhibitory concentration (IC50) (in general, the point on the concentration scale where inhibition reaches its midpoint) against IRAK4 enzyme stood at 0.3 nM. Besides, the half-maximal effective concentration (EC50) in the test with TNFα (setting [1]) is 10.6 nM.

In the case of `CC(=O)NC12CCC(CC1)N(c1nnc(-c3cnc(-c4ccc5cc(C#N)cnn45)cc3NC(C)C)s1)C2` [Example 66, N-(2-(5-(6-(3-cyanopyrrolo[1,2-b]pyridazin-7-yl)-4-(isopropylamino)pyridin-3-yl)-1,3,4-thiadiazol-2-yl)-2-azabicyclo[2.2.2]octan-4-yl)acetamide], on IRAK4 enzyme, the IC50 amounted to 0.42 nM. The EC50 with TNFα (setting [1]) was found to be 13.6 nM.

On to `CC(=O)N1CC2(C1)CN(c1nnc(-c3cnc(-c4ccc5cc(C#N)cnn45)cc3NC(C)C)s1)C2` [Example 68, 7-(5-(5-(6-acetyl-2,6-diazaspiro[3.3]heptan-2-yl)-1,3,4-thiadiazol-2-yl)-4-(isopropylamino)pyridin-2-yl)pyrrolo[1,2-b]pyridazine-3-carbonitrile], for which, on IRAK4 enzyme, the IC50 stood at 0.45 nM. In the test on TNFα (setting [1]), the EC50 was determined as 37.9 nM.

At IRAK4 enzyme, `CC(=O)NC1CCC2(CC1)CN(c1nnc(-c3cnc(-c4ccc5cc(C#N)cnn45)cc3NC(C)C)s1)C2` [Example 69, N-(2-(5-(6-(3-cyanopyrrolo[1,2-b]pyridazin-7-yl)-4-(isopropylamino)pyridin-3-yl)-1,3,4-thiadiazol-2-yl)-2-azaspiro[3.5]nonan-7-yl)acetamide] came in with a half-inhibitory concentration (IC50) of 1.16 nM. Also, the 50% effective concentration (EC50) in the test with TNFα (setting [1]) stood at 11.8 nM.

The compound `CC(=O)NC12CCC(c3nnc(-c4cnc(-c5ccc6cc(C#N)cnn56)cc4NC4COC4)s3)(CC1)CC2` [Example 70, N-(4-(5-(6-(3-cyanopyrrolo[1,2-b]pyridazin-7-yl)-4-(oxetan-3-ylamino)pyridin-3-yl)-1,3,4-thiadiazol-2-yl)bicyclo[2.2.2]octan-1-yl)acetamide] showed an IC50 on IRAK4 enzyme of 0.58 nM. Moreover, the concentration for a half-maximal effect (EC50) in the test with TNFα (setting [1]) was determined as 8.8 nM.

`CC(=O)NC12CCC(c3nnc(-c4cnc(-c5ccc6cc(C#N)cnn56)cc4NC4CCOCC4)s3)(CC1)CC2` [Example 71, N-(4-(5-(6-(3-cyanopyrrolo[1,2-b]pyridazin-7-yl)-4-((tetrahydro-2H-pyran-4-yl)amino)pyridin-3-yl)-1,3,4-thiadiazol-2-yl)bicyclo[2.2.2]octan-1-yl)acetamide] gave an IC50 at IRAK4 enzyme of 0.58 nM. In addition, the concentration giving a half-maximal response (EC50) in the test on TNFα (setting [1]) amounted to 3.2 nM.

On IRAK4 enzyme, `CC(=O)N[C@H]1C[C@@H]2C[C@H]1CN2c1nnc(-c2cnc(-c3ccc4cc(C#N)cnn34)cc2NC(C)C)s1` [Example 74, N-((1S,4S,5S)-2-(5-(6-(3-cyanopyrrolo[1,2-b]pyridazin-7-yl)-4-(isopropylamino)pyridin-3-yl)-1,3,4-thiadiazol-2-yl)-2-azabicyclo[2.2.1]heptan-5-yl)acetamide] returned an IC50 of 0.54 nM. Further, the EC50 with TNFα (setting [1]) was determined as 11 nM.

The compound `CC(=O)NC1CCC2(CC1)CN(c1nnc(-c3cnc(-c4ccc5cc(C#N)cnn45)cc3NC3CCOCC3)s1)C2` [Example 79, N-(2-(5-(6-(3-cyanopyrrolo[1,2-b]pyridazin-7-yl)-4-((tetrahydro-2H-pyran-4-yl)amino)pyridin-3-yl)-1,3,4-thiadiazol-2-yl)-2-azaspiro[3.5]nonan-7-yl)acetamide] displayed an IC50 against IRAK4 enzyme of 0.48 nM. Further, the half-maximal effective concentration (EC50) with TNFα (setting [1]) was 2.6 nM.

With `CC(=O)N[C@@H]1CC[C@@H](c2nnc(-c3cnc(-c4ccc5cc(C#N)cnn45)cc3NC(C)C)s2)OC1` [Example 81, N-((3R,6S)-6-(5-(6-(3-cyanopyrrolo[1,2-b]pyridazin-7-yl)-4-(isopropylamino)pyridin-3-yl)-1,3,4-thiadiazol-2-yl)tetrahydro-2H-pyran-3-yl)acetamide], the midpoint of inhibition against IRAK4 enzyme, the IC50, lay at 0.66 nM. Moreover, in the test with TNFα (setting [1]), the half-maximal effective concentration (EC50) amounted to 21.4 nM.

On IRAK4 enzyme, `CC(=O)NC12CCC(c3nnc(-c4cnc(-c5ccc6cc(C#N)cnn56)cc4NC(C)C)s3)(CC1)OC2` [Example 83, N-(1-(5-(6-(3-cyanopyrrolo[1,2-b]pyridazin-7-yl)-4-(isopropylamino)pyridin-3-yl)-1,3,4-thiadiazol-2-yl)-2-oxabicyclo[2.2.2]octan-4-yl)acetamide] gave an IC50 of 1.37 nM. For the same compound, the EC50 in the test on TNFα (setting [1]) was determined as 52.5 nM.

`CC(C)Nc1cc(-c2ccc3cc(C#N)cnn23)ncc1-c1nnc(C23CCC(O)(CC2)CC3)s1` [Example 89, 7-(5-(5-(4-hydroxybicyclo[2.2.2]octan-1-yl)-1,3,4-thiadiazol-2-yl)-4-(isopropylamino)pyridin-2-yl)pyrrolo[1,2-b]pyridazine-3-carbonitrile]: at IRAK4 enzyme, the concentration for half-maximal inhibition (IC50) is 1.01 nM. Further, the EC50 with TNFα (setting [1]) turned out to be 11.3 nM.

For the compound `CC(C)Nc1cc(-c2ccc3cc(C#N)cnn23)ncc1-c1nnc(N2C[C@H]3CC[C@@H](C2)[C@@H]3NC(=O)[C@H](C)O)s1` [Example 91, (S)-N-((1R,5S,8s)-3-(5-(6-(3-cyanopyrrolo[1,2-b]pyridazin-7-yl)-4-(isopropylamino)pyridin-3-yl)-1,3,4-thiadiazol-2-yl)-3-azabicyclo[3.2.1]octan-8-yl)-2-hydroxypropanamide], the IC50 on IRAK4 enzyme (setting [2]) came out at 0.93 nM. Further, the EC50 in the test with TNFα (setting [3]) turned out to be 3.9 nM.

Take `CC(C)Nc1cc(-c2ccc3cc(C#N)cnn23)ncc1-c1nnc(N2C[C@H]3CC[C@@H](C2)[C@@H]3NC(=O)C2CN(C)C2)s1` [Example 102, N-((1R,5S,8s)-3-(5-(6-(3-cyanopyrrolo[1,2-b]pyridazin-7-yl)-4-(isopropylamino)pyridin-3-yl)-1,3,4-thiadiazol-2-yl)-3-azabicyclo[3.2.1]octan-8-yl)-1-methylazetidine-3-carboxamide]: at IRAK4 enzyme (setting [2]), the IC50 came out at 1.22 nM. Moreover, the concentration for a half-maximal effect (EC50) in the test on TNFα (setting [3]) was found to be 31.4 nM.

Regarding `CC(=O)N[C@H]1CC[C@@H](c2nnc(-c3cnc(-c4ccc5cc(C#N)cnn45)cc3NC(C)C)s2)CC1` [Example 127, N-((1s,4s)-4-(5-(6-(3-cyanopyrrolo[1,2-b]pyridazin-7-yl)-4-(isopropylamino)pyridin-3-yl)-1,3,4-thiadiazol-2-yl)cyclohexyl)acetamide], the IC50 at IRAK4 enzyme (setting [2]) came to 0.64 nM. For the same compound, in the test on TNFα (setting [3]), the EC50 was 9.9 nM.

In the case of `CC(=O)N1CCC(c2nnc(-c3cnc(-c4ccc5cc(C#N)cnn45)cc3NC(C)C)s2)CC1` [Example 128, 7-(5-(5-(1-acetylpiperidin-4-yl)-1,3,4-thiadiazol-2-yl)-4-(isopropylamino)pyridin-2-yl)pyrrolo[1,2-b]pyridazine-3-carbonitrile], at IRAK4 enzyme, the IC50 worked out at 0.59 nM. Further, the EC50 with TNFα (setting [1]) is 18.8 nM.

The compound `CC(C)Nc1cc(-c2ccc3cc(C#N)cnn23)ncc1-c1nnc(N2CCNCC2)s1` [Example 130, 7-(4-(isopropylamino)-5-(5-(piperazin-1-yl)-1,3,4-thiadiazol-2-yl)pyridin-2-yl)pyrrolo[1,2-b]pyridazine-3-carbonitrile] gave a half-inhibitory concentration (IC50) on IRAK4 enzyme of 0.64 nM. Moreover, in the test on TNFα (setting [1]), the EC50 came out at 18.7 nM.

For the compound `CC(C)Nc1cc(-c2ccc3cc(C#N)cnn23)ncc1-c1nnc(N2CCOCC2)s1` [Example 131, 7-(4-(isopropylamino)-5-(5-morpholino-1,3,4-thiadiazol-2-yl)pyridin-2-yl)pyrrolo[1,2-b]pyridazine-3-carbonitrile], half-maximal inhibition at IRAK4 enzyme (IC50) was put at 0.53 nM. Moreover, the EC50 with TNFα (setting [1]) was 14.3 nM.

`CC(C)Nc1cc(-c2ccc3cc(C#N)cnn23)ncc1-c1nnc(C2CCN(CC(F)F)CC2)s1` [Example 133, 7-(5-(5-(1-(2,2-difluoroethyl)piperidin-4-yl)-1,3,4-thiadiazol-2-yl)-4-(isopropylamino)pyridin-2-yl)pyrrolo[1,2-b]pyridazine-3-carbonitrile] yielded an IC50 against IRAK4 enzyme of 1.47 nM. In the test with TNFα (setting [1]), the EC50 came out at 531 nM.

At IRAK4 enzyme, `CC(=O)N[C@@H]1[C@@H]2CC[C@H]1N(c1nnc(-c3cnc(-c4ccc5cc(C#N)cnn45)cc3NC(C)C)s1)C2` [Example 137, N-((1R,4R,7R)-2-(5-(6-(3-cyanopyrrolo[1,2-b]pyridazin-7-yl)-4-(isopropylamino)pyridin-3-yl)-1,3,4-thiadiazol-2-yl)-2-azabicyclo[2.2.1]heptan-7-yl)acetamide] displayed an IC50 of 0.85 nM. Also, the EC50 with TNFα (setting [1]) came to 6.5 nM.

As for `CC(=O)N[C@@H]1C[C@@H]2CC[C@H]1N2c1nnc(-c2cnc(-c3ccc4cc(C#N)cnn34)cc2NC(C)C)s1` [Example 141, N-((1R,2R,4S)-7-(5-(6-(3-cyanopyrrolo[1,2-b]pyridazin-7-yl)-4-(isopropylamino)pyridin-3-yl)-1,3,4-thiadiazol-2-yl)-7-azabicyclo[2.2.1]heptan-2-yl)acetamide], the IC50 against IRAK4 enzyme came out at 0.5 nM. For the same compound, the EC50 with TNFα (Homo sapiens, Monocyte) is 18.6 nM.

Compound `CC1(Nc2cc(-c3ccc4cc(C#N)cnn34)ncc2-c2nnc(N3C[C@H]4CC[C@@H](C3)O4)s2)COC1` [Example 145, 7-(5-(5-((1R,5S)-8-oxa-3-azabicyclo[3.2.1]octan-3-yl)-1,3,4-thiadiazol-2-yl)-4-((3-methyloxetan-3-yl)amino)pyridin-2-yl)pyrrolo[1,2-b]pyridazine-3-carbonitrile] showed an IC50 at IRAK4 enzyme of 0.33 nM. In the test with TNFα (setting [1]), the EC50 worked out at 5.6 nM.
